Measurements as given in patent US20230085362A1, “PYRIMIDINE COMPOUNDS AND USE THEREOF” (National Health Research Institutes, priority 2021, published 2023).

Assays:
Primary DRG cells [1] = assay: Neurite outgrowth assay (group B), oxaliplatin-induced neurotoxicity; format: cell-based, C57BL/6 J mice; settings: for neuroprotection against oxaliplatin-induced neurotoxicity: 1 µM compound; for Neurite outgrowth (%): % of untreated control; for Neurite outgrowth (%) A-B: difference between compound 1 µM + oxaliplatin 100 µM and oxaliplatin 100 µM alone
Method: (§1) Cell culture. For primary culture, dorsal root ganglia (“DRG”) were removed from 7-weeks-old C57BL/6 J mice and digested with 0.1% collagenase (Sigma-Aldrich, St. Louis, MO) for 1 hour, followed by 0.25% trypsin treatment for 25 minutes. The dissociated neuron cultures were plated at a density of 2.5×10^4 cells per well in a 96 well optics plates (CLS3614; Sigma-Aldrich) precoated with 1 mg/mL poly-D-lysine (A-003-M; Sigma-Aldrich) for 3 hours. Primary DRG cells were grown in DMEM-F12 (11320033; Gibco®, ThermoFisher Scientific, Waltham, MA) supplemented with 10% fetal bovine serum (FBS, 26140079; Gibco®, ThermoFisher). These cells were maintained at 37° C. in an environment containing 5% CO2.
(§2) Neurite outgrowth assay (group A). Primary DRG cells were incubated with one of the Example 2 compounds at 1 µM for 24 hours, and then treated with 0.05 µM paclitaxel for another 24 hours. After the paclitaxel treatment, the primary DRG cells were washed by PBS and then fixed with 4% paraformaldehyde (PFA, P6148; Sigma-Aldrich) for 15 minutes. The DRG cells thus fixed were permeabilized by 0.05% Triton X-100 in PBS for 20 minutes and blocked with 3% bovine serum albumin (BSA; Sigma-Aldrich, USA) at room temperature for 1 hour. Subsequently, DRG cells were stained with rabbit anti-β III tubulin (1:600; Cell Signaling, USA) and mouse anti-NeuN monoclonal antibody (1:400; Millipore, USA) overnight at 4° C. The samples were then washed by PBS and reacted with secondary antibodies (Alexa-488 and Alexa-594 1:600; Invitrogen, CA) at room temperature for 1 hour. For image acquisition and analysis of DRG neurite outgrowth, images of stained cells were automatically acquired using 10X objective by Image Xpress Micro wide field fluorescent microscope (Molecular Devices, USA). A control was obtained following the same procedure except that the DRG cells were not treated with a compound or paclitaxel. Neurite outgrowth was measured as a percentage of outgrowth as compared to the control.
Neurite outgrowth assay (group B). Primary DRG cells were incubated with compounds 17, 47, 97, 98, 101, 104 at 1 µM for 24 hours, and then treated with 100 µM oxaliplatin for another 48 hours. The treatment was obtained following the same procedure as group A except that the DRG cells were treated with a oxaliplatin. Neurite outgrowth was measured as a percentage of outgrowth as compared to the control.

Primary DRG cells [2] = assay: Neurite outgrowth assay (group A), paclitaxel-induced neurotoxicity; format: cell-based, C57BL/6 J mice; settings: for neuroprotection against paclitaxel-induced neurotoxicity: 1 µM compound, 0.05 µM paclitaxel; for activity at 1 µM: Mus musculus, DRG cells, 1 µM compound 24 h then 0.05 µM paclitaxel 24 h, % of untreated control, read-out: Neurite outgrowth (%); for Neurite outgrowth (%) A-B (extent of protection): difference between compound 1 µM + paclitaxel 0.05 µM and paclitaxel 0.05 µM alone
Method: Compounds of this invention were evaluated using the neurite outgrowth assay as described in Chen et al., Scientific Reports, 7, 45366, DOI: 10.1038/srep45366 (2017).
as §1, §2
The difference between A and B indicates an extent of protection provided by the compound.

[3] = system: paclitaxel-induced neuropathy; settings: 5 mg/kg i.p. one hour before paclitaxel 4.5 mg/kg i.p., days 0, 2, 4, 6
Method: Compound 47 was used in an in vivo mouse behavioral study for treating paclitaxel-induced neuropathy following a procedure described in Chen et al., Scientific Reports, 7, 45366, DOI: 10.1038/srep45366 (2017).
After housing adaptions, 7-weeks-old C57BL/6J female mice (weight range: 18-20 g) were treated as follows. Paclitaxel (4.5 mg/kg, Bristol-Myers Squibb, New York, New York), vehicle (saline), or Compound 47 (5, 10 or 20 mg/kg) was injected intraperitoneally on four alternative days (days 0, 2, 4, and 6). Two behavior tests were performed: (1) mechanical hyperalgesia was evaluated using a von Frey filament (Part #2390, IITC Inc., CA) and (2) thermal sensitivity was studied using a tail immersion assay (water temperature: 48-49° C.). See Chen et al., Mol. Cancer. Ther. 14, 2206-14 (2015). The baseline measurement of each behavior test was established prior to treatments. Five sessions were measured weekly.
The neuroprotective effects of Compound 47 in a mouse model was measured following a protocol with predetermined drug administration and behavioral tests. The basal levels of each behavioral assay were obtained prior to the treatment. […]
A von Frey filament test was performed to detect allodynia. […] Thermal sensation was assessed using a tail immersion test by checking tail withdrawal latency. […]

[4] = DRG cells, 1 µM compound 24 h then 100 µM oxaliplatin 48 h

Row | Compound | neuroprotection against oxaliplatin-induced neurotoxicity (Primary DRG cells [1]; 100 µM oxaliplatin) | Neurite outgrowth (%) (Primary DRG cells [1]; [4]) | Neurite outgrowth (%) A-B (Primary DRG cells [1]) [%] | neuroprotection against paclitaxel-induced neurotoxicity (Primary DRG cells [2]) | activity at 1 µM (Primary DRG cells [2]) [%] | Neurite outgrowth (%) A-B (extent of protection) (Primary DRG cells [2]) [%] | improvement of neurite outgrowth (Primary DRG cells [1]; 1 µM compound vs 100 µM oxaliplatin treated cells) | pain threshold (von Frey) [3] | improvement of neurite outgrowth (Primary DRG cells [2]; 1 µM compound vs 0.05 µM paclitaxel treated cells) | neurotoxicity to DRG neurite outgrowth (Primary DRG cells [1]; 100 µM oxaliplatin 48 h) | inhibition of DRG neurite outgrowth (Primary DRG cells [1]; 100 µM oxaliplatin, across experiments of Table 2) | Neurite outgrowth (%) (Primary DRG cells [1]; DRG cells treated with 100 µM oxaliplatin only, comparator of the compound in the same table row)
1 | OCCCc1cc(CNc2nc(NC3CCNCC3)cc(N3CCOCC3)n2)no1 [Compound 104] | neuroprotection was provided | 34 | 5 | neuroprotection was provided | 45 | 5 | – | – | – | – | – | –
2 | CCn1nnc(CNc2nc(N3CCOCC3)cc(N3CCOCC3)n2)n1 [Compound 98] | – | 26 | -3 | neuroprotection was provided | 45 | 5 | – | – | – | – | – | –
3 | CC(C)NCCCn1cc(CNc2nc(NC3CCN(Cc4ccccc4)CC3)cc(N3CCOCC3)n2)nn1 [Compound 17] | – | 26 | -3 | neuroprotection was provided | 50 | 3 | – | – | – | – | – | –
4 | O=P(O)(O)CCN1CCC(Nc2cc(N3CCOCC3)nc(NCc3cn(CCCO)nn3)n2)CC1 [Compound 47] | neuroprotection was provided | 47 | 7 | neuroprotection was provided | 65 | 18 | more than 7% | provided protection | more than 18% | – | – | –
5 | CCn1nnc(CNc2nc(NC3CCN(CCC(=O)O)CC3)cc(N3CCOCC3)n2)n1 [Compound 101] | neuroprotection was provided | 31 | 2 | neuroprotection was provided | 53 | 6 | – | – | – | – | – | –
6 | CCn1nnnc1CNc1nc(N2CCOCC2)cc(N2CCOCC2)n1 [Compound 97] | neuroprotection was provided | 31 | 2 | neuroprotection was provided | 45 | 5 | – | – | – | – | – | –
7 | O=C1[O][Pt]2([NH][C@@H]3CCCC[C@H]3[NH]2)[O]C1=O [oxaliplatin, reference compound] | – | – | – | – | – | – | – | – | – | inhibiting neurite outgrowth | 60%-71 | 29
